# Results from PMC9993459, “A novel selective spleen tyrosine kinase inhibitor SKI-O-703 (cevidoplenib) ameliorates lupus nephritis and serum-induced arthritis in murine models” (Clinical and Experimental Immunology, 2022).
# “Also recorded” adds a separate entry of the source.
# Assays:
# [1] = tested on: mouse primary B cells; assay: CP670-dilution proliferation assay, BCR crosslinking (anti-IgM) stimulated B cells; format: cell-based; conditions: 0.1–5 μM, CP670 dilution, 72 h
# Protocol: Splenic CD19^+ B cells from C57BL/6 mice were sorted by MACS (Milteny Biotec), stained with 3 μM cell proliferation dye eFluor 670 (CP670; eBioscience), and cultured for 72 h in the presence of either 10 μg/ml LPS (Sigma Aldrich) or 5 μg/ml anti-mouse IgM (Jackson Immuno Research Laboratories), 10 μg/ml anti-CD40 mAb (Biolegend) and 10 ng/ml IL-4 (Peprotech), and assayed by FACS. To detect apoptotic cells, unstimulated cells were cultured for 24 h, stained with Annexin V and 7-aminoactinomycin D (7-AAD), and assayed by FACS.
# Figure 2: in vitro effects of SKI-O -703 on the proliferation, survival, and differentiation of B cells. Mouse primary B cells were labeled with CP670, and stimulated with either anti-IgM mAb, CD40L and IL-4 (A) or LPS (B) for 72 h in the presence or absence of SKI-O-703 and tofacitinib at the indicated concentrations; they were then assayed by FACS. (C and D) Mouse primary B cells were cultured as in A and B for 24 h, stained with Annexin V and 7-AAD, and assayed by FACS. Representative FACS profiles and graphs displaying mean Annexin V-positivity are shown. (E) Human primary B cells were stimulated with CpG ODN plus IL-2 (to detect IgM and IgG) or CpG ODN 2006 plus IFN-α (to detect IL-6) in the presence or absence of inhibitors. The culture supernatants were assayed by ELISA. Graphs are expressed as % positivity relative to the controls (without inhibitor). […]
# [2] = tested on: human primary B cells; assay: IgM, IgG and IL-6 secretion by stimulated human primary B cells (ELISA); format: cell-based; conditions: TLR9 agonist plus IL-2 or IFN-α; efficacy comparable to R406
# Protocol: Human CD19^+ B cells (Lonza) were pre-treated with inhibitors for 1 h and stimulated for 24 h with 50 nM CpG ODN 2006 plus 10 ng/ml IL-2 or 1 μM CpG ODN 2006 plus 20 ng/ml IFN-α. Culture supernatants were assayed by ELISA to detect secreted IgG, IgM, and IL-6, according to the manufacturer’s instructions.
# Figure 2: in vitro effects of SKI-O -703 on the proliferation, survival, and differentiation of B cells. Mouse primary B cells were labeled with CP670, and stimulated with either anti-IgM mAb, CD40L and IL-4 (A) or LPS (B) for 72 h in the presence or absence of SKI-O-703 and tofacitinib at the indicated concentrations; they were then assayed by FACS. (C and D) Mouse primary B cells were cultured as in A and B for 24 h, stained with Annexin V and 7-AAD, and assayed by FACS. Representative FACS profiles and graphs displaying mean Annexin V-positivity are shown. (E) Human primary B cells were stimulated with CpG ODN plus IL-2 (to detect IgM and IgG) or CpG ODN 2006 plus IFN-α (to detect IL-6) in the presence or absence of inhibitors. The culture supernatants were assayed by ELISA. Graphs are expressed as % positivity relative to the controls (without inhibitor). The data are representative of 2–3 independent experiments. *P < 0.05, **P < 0.01, and ***P < 0.001, compared with vehicle control by two-tailed unpaired Students t-tests.
# [3] = molecular target: Jak3 (Homo sapiens, UniProt P52333); assay: Kinase assay (LANCE Ultra TR-FRET), Jak3; format: biochemical
# Chain of Jak3 (P52333 whole entry, species assumed): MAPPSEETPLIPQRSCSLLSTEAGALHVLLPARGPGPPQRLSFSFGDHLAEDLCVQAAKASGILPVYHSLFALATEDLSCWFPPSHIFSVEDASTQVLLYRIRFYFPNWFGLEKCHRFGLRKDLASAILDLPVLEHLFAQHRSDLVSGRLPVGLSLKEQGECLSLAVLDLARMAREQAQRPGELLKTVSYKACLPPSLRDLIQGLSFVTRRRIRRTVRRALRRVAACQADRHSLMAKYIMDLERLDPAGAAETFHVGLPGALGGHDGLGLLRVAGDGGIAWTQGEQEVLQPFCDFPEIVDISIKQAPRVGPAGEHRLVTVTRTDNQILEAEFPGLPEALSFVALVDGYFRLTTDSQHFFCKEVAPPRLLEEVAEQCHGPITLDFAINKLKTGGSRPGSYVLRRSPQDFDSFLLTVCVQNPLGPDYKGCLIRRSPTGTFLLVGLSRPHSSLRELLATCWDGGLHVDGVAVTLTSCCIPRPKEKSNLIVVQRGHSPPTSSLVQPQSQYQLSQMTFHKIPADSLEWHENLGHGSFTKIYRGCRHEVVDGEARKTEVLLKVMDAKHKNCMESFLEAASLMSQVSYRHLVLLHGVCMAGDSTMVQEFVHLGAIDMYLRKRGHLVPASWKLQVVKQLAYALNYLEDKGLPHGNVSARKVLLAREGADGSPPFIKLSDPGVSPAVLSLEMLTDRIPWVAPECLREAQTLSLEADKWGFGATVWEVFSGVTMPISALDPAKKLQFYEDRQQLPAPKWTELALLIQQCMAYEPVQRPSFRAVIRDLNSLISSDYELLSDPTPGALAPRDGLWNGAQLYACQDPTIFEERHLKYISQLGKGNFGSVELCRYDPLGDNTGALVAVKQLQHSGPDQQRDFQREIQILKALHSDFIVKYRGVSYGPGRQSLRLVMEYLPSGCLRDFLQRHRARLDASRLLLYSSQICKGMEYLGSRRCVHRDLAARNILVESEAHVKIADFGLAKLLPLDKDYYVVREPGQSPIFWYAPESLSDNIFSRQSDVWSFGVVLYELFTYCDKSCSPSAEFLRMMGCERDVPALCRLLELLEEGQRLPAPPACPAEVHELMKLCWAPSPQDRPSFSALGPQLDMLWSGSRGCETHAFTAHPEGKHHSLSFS
# Protocol: (§1) Kinase assays were conducted in 384-well plates using LANCE ultra 66 time-resolved fluorescence resonance energy transfer (TR-FRET) methods, according to the manufacturer’s instructions (Perkin-Elmer). In brief, each kinase was pre-incubated with a serially diluted compound for 30 min, incubated with ULight poly-GT peptide substrate and ATP for up to 1 h. Thirty minutes after adding Eu-labeled anti-phosphopeptides Ab diluted in LANCE Detection Buffer, LANCE signals were measured with an EnVision multilabel reader (Perkin-Elmer).
# [4] = molecular target: T1, Zap70 (Homo sapiens, UniProt P43403); assay: Immunoblotting of Zap70 phosphorylation in TCR-stimulated T cells; format: cell-based; conditions: 0.3–10 μM
# T1 construct: endogenous in cells; host or cells: human peripheral T cells sorted from PBMC, stimulated with anti-CD3 and anti-CD28
# T1 sequence (P43403 whole entry): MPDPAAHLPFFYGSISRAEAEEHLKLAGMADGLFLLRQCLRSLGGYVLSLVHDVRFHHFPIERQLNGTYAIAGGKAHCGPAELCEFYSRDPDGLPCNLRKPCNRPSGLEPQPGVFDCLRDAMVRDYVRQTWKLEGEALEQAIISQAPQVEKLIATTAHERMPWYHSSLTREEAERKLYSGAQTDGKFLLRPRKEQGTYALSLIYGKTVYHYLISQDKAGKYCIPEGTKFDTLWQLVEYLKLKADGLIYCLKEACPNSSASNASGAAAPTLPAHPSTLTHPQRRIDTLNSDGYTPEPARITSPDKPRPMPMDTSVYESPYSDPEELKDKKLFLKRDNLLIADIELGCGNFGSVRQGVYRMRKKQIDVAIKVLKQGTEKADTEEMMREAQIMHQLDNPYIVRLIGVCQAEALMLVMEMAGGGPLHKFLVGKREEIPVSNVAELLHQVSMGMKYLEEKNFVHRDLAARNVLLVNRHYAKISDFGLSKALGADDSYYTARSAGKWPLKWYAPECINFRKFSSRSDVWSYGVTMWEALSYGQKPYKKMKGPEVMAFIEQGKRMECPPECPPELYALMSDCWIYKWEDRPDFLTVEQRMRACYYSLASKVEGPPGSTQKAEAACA
# Protocol: (A) The stru cture of SKI-O-703. (B-D) Human per ipheral T cells sorted fro m human peripheral blood mononuclear cells (B and D) and mouse primary T cells sorted from spleen (C ) wer e stimulated with 5 µ g/ml anti- CD3 and 2 µ g/ml anti- CD28 m Abs in the presence or absence of inhibitors as indicated. Af ter one hour (B) and 24 h ours (C and D) of culture, cells we re assaye d
# by immunoblotting (B), FA C S ( C), and ELISA (D).
# of Zap70 and its downstream target PLCγ1. It’s effect on the suppression of IL-2 production
# [5] = tested on: KOR; assay: Kinase assay (LANCE Ultra TR-FRET), KOR; format: biochemical
# Protocol: as §1
# [6] = molecular target: FGFR2 (Homo sapiens, UniProt P21802); assay: Kinase assay (LANCE Ultra TR-FRET), FGFR2; format: biochemical
# Chain of FGFR2 (P21802 22-821, species assumed): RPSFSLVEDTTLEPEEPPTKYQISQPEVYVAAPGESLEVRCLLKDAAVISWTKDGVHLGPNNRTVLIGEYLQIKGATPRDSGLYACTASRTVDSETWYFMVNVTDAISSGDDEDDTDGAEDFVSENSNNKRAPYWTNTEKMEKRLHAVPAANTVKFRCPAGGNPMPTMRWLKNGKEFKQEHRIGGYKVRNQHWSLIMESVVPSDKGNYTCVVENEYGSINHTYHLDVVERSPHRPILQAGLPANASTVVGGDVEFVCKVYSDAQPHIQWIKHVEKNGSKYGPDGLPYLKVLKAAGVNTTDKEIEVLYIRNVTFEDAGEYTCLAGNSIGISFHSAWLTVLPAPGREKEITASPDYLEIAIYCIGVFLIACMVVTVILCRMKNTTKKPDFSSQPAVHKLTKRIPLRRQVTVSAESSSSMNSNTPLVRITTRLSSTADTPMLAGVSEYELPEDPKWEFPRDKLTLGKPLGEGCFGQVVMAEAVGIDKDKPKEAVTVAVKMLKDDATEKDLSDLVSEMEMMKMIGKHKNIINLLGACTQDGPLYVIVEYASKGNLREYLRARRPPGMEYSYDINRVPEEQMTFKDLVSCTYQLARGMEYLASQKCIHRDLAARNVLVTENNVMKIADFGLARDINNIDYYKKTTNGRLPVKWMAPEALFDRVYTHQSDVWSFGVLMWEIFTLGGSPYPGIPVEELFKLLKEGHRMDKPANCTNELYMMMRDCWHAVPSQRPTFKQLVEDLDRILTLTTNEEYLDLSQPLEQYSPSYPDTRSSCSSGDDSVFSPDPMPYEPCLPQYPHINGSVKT
# Protocol: as §1
# [7] = molecular target: T2, phosphorylated Syk (p-Syk) in human CD14+ monocytes (Homo sapiens, UniProt P43405); assay: p-Syk ELISA in IgG-stimulated human CD14+ monocytes (FcγR signal); format: cell-based
# T2 construct: endogenous in cells; host or cells: Ramos (ATCC), THP-1 (ATCC), human CD14+ monocytes (Lonza)
# Protocol: THP-1 and Ramos cell lines and human CD14^+ monocytes were purchased from the American Type Culture Collection (ATCC) and Lonza, respectively. After treatment with Syk inhibitors for 1 h, THP-1 cells and monocytes were stimulated for 15 min with 100 μg/ml human IgG (Invitrogen), and Ramos cells were stimulated with 2 μg/ml anti-human IgM monoclonal Ab (mAb) (Bathyl). Cells were lysed in RIPA buffer containing 1% NP-40, 1% sodium deoxycholate, 0.1% SDS, and a mixture of protease and phosphatase inhibitors (Thermo Scientific). The lysates were assayed by standard immunoblotting methods and ELISA. Primary Abs used for immunoblotting were anti-phospho-Syk ([…]), anti-phospho-Vav (Y174), anti-phospho-PLCγ1 (Y1217) and anti-phospho-BLNK (Y96) Abs (all from Cell Signaling). ELISAs to detect phospho-Syk (Y525/526) were performed according to the manufacturer’s protocol (Cell Signaling).
# Ramos cells (A), human primary monocytes (B), and THP cells (C) were pretreated with inhibitors at the indicated concentrations and stimulated with anti-human IgM (A) and human IgG (B and C). […] The relative intensities of protein phosphorylation levels were quantitated with reference to each lane of β-actin control bands. (D) Ramos cells, human primary monocytes, and THP cells were treated as in A–C for 24 h and levels of phosphorylated Syk (p-Syk) were measured by ELISA.
Compound,BCR crosslinking-induced proliferation [1],"Production of IgM, IgG and IL-6 [2]",Ratio to Syk (Jak3) ([3]; IC50 ratio to Syk),"IC50 ([3]; kinase activity, TR-FRET) [nM]",Phosphorylation of Zap70 and its downstream target PLCγ1 [4],Ratio to Syk (KOR) ([5]; IC50 ratio to Syk),"IC50 ([5]; kinase activity, TR-FRET) [nM]",Ratio to Syk (FGFR2) ([6]; IC50 ratio to Syk),"IC50 ([6]; kinase activity, TR-FRET) [nM]",IC50 [7] [nM]
"CS(=O)(=O)O.CS(=O)(=O)O.Cc1nn(-c2ccnc(Nc3ccc4c(c3)c(C(=O)C3CC3)cn4C)n2)cc1CN1C[C@H](O)CO1 [SKI-O-703, (S)-cyclopropyl(5-((4-(4-((4-hydroxyisoxazolidin-2-yl)methyl)-3-methyl-1H-pyrazol-1-yl)pyrimidin-2-yl)amino)-1-methyl-1H-indol-3-yl)methanone dimesylate]",inhibited BCR crosslinking-induced proliferation in a concentration-dependent manner,–,–,–,–,–,–,–,–,–
Cc1nn(-c2ccnc(Nc3ccc4c(c3)c(C(=O)C3CC3)cn4C)n2)cc1CN1C[C@H](O)CO1 [SKI-O-592],–,"inhibited the production of IgM, IgG, and IL-6",943,5810,did not inhib it phosphorylation; also recorded: failed to affect,111,687,>1623,> 10000,191
